# According to ChEMBL document CHEMBL3611975, “New carbocyclic N(6)-substituted adenine and pyrimidine nucleoside analogues with a bicyclo[2.2.1]heptane fragment as sugar moiety; synthesis, antiviral, anticancer activity and X-ray crystallography” (Bioorg Med Chem, 2015):
# pEC50: −log10 of the molar value.
# Assays:
# [1] = Selectivity index, ratio of CTD50 for MDCK cells to EC50 for Influenza A virus (A/Puerto Rico/8/1934(H1N1)); assay type: toxicity, cell-based; conditions: dog
# [2] = Cytotoxicity against African green monkey Vero cells assessed as cell viability after 72 hrs by MTT assay; assay type: cell-based; conditions: chlorocebus sabaeus, read-out: CTD50
# [3] = Selectivity index, ratio of CTD50 for African green monkey Vero cells to EC50 for Human coxsackievirus B4 Powers; assay type: toxicity, cell-based
# [4] = Cytotoxicity against MDCK cells assessed as cell viability after 48 hrs by MTT assay; assay type: cell-based, Canis lupus familiaris; conditions: dog, read-out: CTD50
# Coxsackievirus B4 = experiment: Antiviral activity against Human coxsackievirus B4 Powers infected in African green monkey Vero cells assessed as decrease in virus titer after 72 hrs by MTT assay; assay type: functional, organism-based; conditions: Enterovirus B
# Influenza A virus = experiment: Antiviral activity against Influenza A virus (A/Puerto Rico/8/1934(H1N1)) infected in MDCK cells assessed as decrease in virus titer after 48 hrs by MTT assay; assay type: functional, organism-based
SMILES,selectivity ratio [1],CC50 at 72 h [2] [µM],selectivity ratio [3],CC50 at 48 h [4] [µM],pEC50 (Coxsackievirus B4),pEC50 (Influenza A virus)
CN1CCN(c2ncnc3c2ncn3[C@H]2C[C@H]3[C@H](CO)[C@@H]2C[C@@H]3Cl)CC1,39,227,3,1000,< 4.06,4.60
CCN(CC)CCNc1ncnc2c1ncn2[C@H]1C[C@H]2[C@H](CO)[C@@H]1C[C@@H]2Cl,36,175,2,731,< 4.08,4.70
OC[C@H]1[C@@H]2C[C@H](n3cnc4c(N5CCOCC5)ncnc43)[C@H]1C[C@@H]2Cl,54,97,1,997,< 4.05,4.72
OC[C@H]1[C@@H]2C[C@H](n3cnc4c(NCc5ccncc5)ncnc43)[C@H]1C[C@@H]2Cl,3,166,2,712,< 4.08,3.60
OC[C@@H](Cc1ccccc1)Nc1ncnc2c1ncn2[C@H]1C[C@H]2[C@H](CO)[C@@H]1C[C@@H]2Cl,3,197,141,410,6.00,3.88
CCN(CC)CCCNc1ncnc2c1ncn2[C@H]1C[C@H]2[C@H](CO)[C@@H]1C[C@@H]2Cl,< 3,137,2,664,< 4.09,< 3.61
OC[C@H]1[C@@H]2C[C@H](n3cnc4c(NCCc5ccc(O)cc5)ncnc43)[C@H]1C[C@@H]2Cl,> 16,108,6,> 795,4.74,4.32
OC[C@H]1[C@@H]2C[C@H](n3cnc4c(NC5CCCC5)ncnc43)[C@H]1C[C@@H]2Cl,36,27,1,529,< 4.52,4.82
CCN(CC)c1ncnc2c1ncn2[C@H]1C[C@H]2[C@H](CO)[C@@H]1C[C@@H]2Cl,18,182,2,385,< 4.03,4.66
O=c1ccn([C@H]2C[C@H]3[C@H](CO)[C@@H]2C[C@@H]3Cl)c(=O)[nH]1,> 19,172,1,> 1210,< 3.44,4.19
CN1CCN(Nc2ncnc3c2ncn3[C@H]2C[C@H]3[C@H](CO)[C@@H]2C[C@@H]3Cl)CC1,73,255,1,840,< 3.59,4.92
OC[C@H]1[C@@H]2C[C@H](n3cnc4c(NCc5cccnc5)ncnc43)[C@H]1C[C@@H]2Cl,5,204,2,554,< 4.07,3.91
CN(C)c1ncnc2c1ncn2[C@H]1C[C@H]2[C@H](CO)[C@@H]1C[C@@H]2Cl,8,235,9,929,4.55,3.95
OC[C@H]1[C@@H]2C[C@H](n3cnc4c(NC5CC5)ncnc43)[C@H]1C[C@@H]2Cl,151,247,15,1130,4.77,5.10
Cc1cn([C@H]2C[C@H]3[C@H](CO)[C@@H]2C[C@@H]3Cl)c(=O)[nH]c1=O,> 3,57,1,> 1160,< 3.45,3.45
Nc1ncnc2c1ncn2[C@H]1C[C@H]2[C@H](CO)[C@@H]1C[C@@H]2Cl,> 150,332,3,> 1120,< 3.95,5.10
OC[C@@H]1[C@@H]2C[C@H](Cl)[C@H]1C[C@@H]2Nc1ncnc2c1ncn2[C@H]1C[C@H]2[C@H](CO)[C@@H]1C[C@@H]2Cl,> 73,213,3,> 704,4.21,5.00
OC[C@H]1[C@@H]2C[C@H](n3cnc4c(NC5CCCCC5)ncnc43)[C@H]1C[C@@H]2Cl,6,14,1,528,< 4.96,4.04
